Where “and” joins values, the source holds several entries; their conditions need not be identical. Identical values can stand only once.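 Dose response: 5 concentrations. Exposure: 48 h. Format: 96-well plates. Endpoint: linear interpolation; highest concentration if not reached. GI50: concentration for 50% inhibition of growth. The concentration for full growth arrest is given as TGI.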
Key:
Test in all cases: NCI-60 cell line screen, 48 h
A498 renal = system: A498 renal
ACHN renal = system: ACHN renal
EKVX NSCLC = system: EKVX NSCLC
HT29 colon = system: HT29 colon
K-562 leukemia = system: K-562 leukemia
MOLT-4 leukemia = system: MOLT-4 leukemia
OVCAR-5 ovarian = system: OVCAR-5 ovarian
RPMI-8226 leukemia = system: RPMI-8226 leukemia
TK-10 renal = system: TK-10 renal
MDA-MB-231 breast = system: MDA-MB-231 breast

Structure (SMILES)	TGI (A498 renal)	TGI (ACHN renal)	TGI (EKVX NSCLC)	TGI (HT29 colon)	TGI (K-562 leukemia)	TGI (MOLT-4 leukemia)	TGI (OVCAR-5 ovarian)	TGI (RPMI-8226 leukemia)	TGI (TK-10 renal)	GI50 (A498 renal)	GI50 (ACHN renal)	GI50 (EKVX NSCLC)	GI50 (HT29 colon)	GI50 (K-562 leukemia)	GI50 (MOLT-4 leukemia)	GI50 (OVCAR-5 ovarian)	GI50 (RPMI-8226 leukemia)	GI50 (TK-10 renal)	GI50 (MDA-MB-231 breast) [µM]	TGI (MDA-MB-231 breast) [µM]
C[N+](C)(C)CC(=O)N/N=C(/C=C/c1ccccc1)CC1OC(=O)c2ccccc21 (stereo not given)	> 100 µM	> 100 µM	> 100 µM	> 10 µM	> 100 µM	> 100 µM	> 10 µM	> 100 µM	> 100 µM	–	–	–	–	–	–	–	–	–	–	–
CN(C)CCCn1cnc2ncccc2c1=O	–	> 100 µM	> 100 µM	> 100 µM	> 100 µM	> 100 µM	> 100 µM	–	> 100 µM	–	–	–	–	–	–	–	–	–	–	–
O=C(Nc1ccc(Cl)cc1)NS(=O)(=O)c1ccc2c(c1)CCC2	> 100 µM and 38 µg/mL	> 100 µM and 49.6 µg/mL	> 100 µM and 72.1 µg/mL	> 100 µM and 43.4 µg/mL	> 77.1 µM and 150 µg/mL	98.2 µM and 74.6 µg/mL	> 91 µM and 39.3 µg/mL	85.7 µM and 150 µg/mL	> 95.4 µM and 44.5 µg/mL	19.1 µg/mL	16.1 µg/mL	22.4 µg/mL	19.7 µg/mL	11.3 µg/mL	19.7 µg/mL	20 µg/mL	34.2 µg/mL	21 µg/mL	–	–
CCc1ccc(Cc2ccc(CC)c(NC(=O)C(=O)Cc3nc4ccccc4nc3C)c2CC)c(CC)c1NC(=O)C(=O)Cc1nc2ccccc2nc1C	> 100 µM	> 100 µM	> 100 µM	–	> 100 µM	> 100 µM	> 100 µM	> 100 µM	> 100 µM	–	–	–	–	–	–	–	–	–	–	–
CCCCNC(=S)Nn1c(-c2ccccc2)nc2ccccc2c1=O	> 100 µM	> 100 µM	–	> 100 µM	> 100 µM	> 100 µM	> 100 µM	> 100 µM	> 100 µM	–	–	–	–	–	–	–	–	–	–	–
O=c1[nH]nc(-c2ccccc2)c(-c2ccccc2)c1-n1nc(-c2ccccc2)c2ccccc2c1=O	> 100 µM	> 100 µM	> 100 µM	> 100 µM	> 100 µM	88.7 µM	> 100 µM	> 100 µM	> 100 µM	–	–	–	–	–	–	–	–	–	–	–
CCC12C=CCN3CC[C@]4(C(=C(C(=O)OC)[C@@H]1Nc1ncnc5c1ncn5C1OC(COC(C)=O)C(OC(C)=O)C1OC(C)=O)Nc1ccccc14)C32 (stereo not given in full)	4.56 µM	5.69 µM	16.2 µM	4.88 µM	17 µM	25.3 µM	8.94 µM	18.9 µM	6.58 µM	–	–	–	–	–	–	–	–	–	–	–
COC(=O)C1=Cc2cc3c(cc2[C@H](c2ccc4c(c2)OCO4)C1C(=O)OC)OCO3 (stereo not given in full)	74 µM	> 100 µM	> 100 µM	> 100 µM	> 100 µM	> 100 µM	> 100 µM	> 100 µM	> 100 µM	–	–	–	–	–	–	–	–	–	–	–
CC[C@]1(O)C[C@@H]2CN(Cc3c([nH]c4ccccc34)[C@@](C(=O)OC)(c3cc4c(cc3OC)N(C)[C@H]3[C@@](O)(C(=O)OC)[C@H](OC(C)=O)[C@]5(CC)[C@@H]6C[C@@H]6CN6CC[C@]43[C@@H]65)C2)C1	> 2.85 µM	> 4.38 µM	–	> 4.38 µM	> 4.38 µM	> 4.38 µM	> 4.38 µM	> 4.38 µM	> 4.38 µM	0.163 µM	3.38 µM	–	0.0311 µM	0.0279 µM	0.0484 µM	0.144 µM	0.0372 µM	> 3.69 µM	0.0761	> 2.61
C#Cc1cccc(NC(=O)Nc2ccccc2NC(=O)CCl)c1	–	30.6 µM	66.2 µM	> 82.5 µM	> 82.5 µM	> 82.5 µM	41.9 µM	> 82.5 µM	> 82.5 µM	–	14.5 µM	19.3 µM	27.6 µM	22.8 µM	25.6 µM	17.4 µM	15.2 µM	25.5 µM	16.6	34.6
CCN(CC)CCN(C)CC(C)(C)C(=O)/C=C/c1ccccc1	17.3 µM	26.5 µM	26.1 µM	24.9 µM	> 100 µM	30.5 µM	26.9 µM	36 µM	36.8 µM	–	–	–	–	–	–	–	–	–	–	–
CCN(CC)CCn1c(=N)n(CC(O)c2ccc(Cl)c(Cl)c2)c2ccccc21 (stereo not given)	15.6 µM	24.4 µM	–	12.1 µM	6.36 µM	13.1 µM	22.8 µM	8.02 µM	27.1 µM	3.07 µM	11.9 µM	–	3.3 µM	2.33 µM	3.1 µM	10.7 µM	2.72 µM	14.1 µM	5.16	20.2
COC1CCC(=C2C(=O)OC(C)(C)OC2=O)N1 (stereo not given)	–	> 100 µM	> 100 µM	> 100 µM	> 100 µM	> 100 µM	> 100 µM	> 100 µM	> 100 µM	–	–	–	–	–	–	–	–	–	–	–
COc1ccc(CN(O)C2C(CO)OC(n3cc(I)c(=O)[nH]c3=O)C2O)cc1 (stereo not given)	> 100 µM	> 100 µM	> 100 µM	> 100 µM	> 100 µM	> 100 µM	> 100 µM	> 100 µM	> 100 µM	–	–	–	–	–	–	–	–	–	–	–
C=CCCc1cc(OC)ccc1CN(C)C(C)(C)CO	> 100 µM	> 100 µM	> 100 µM	> 100 µM	> 100 µM	–	> 100 µM	> 100 µM	> 100 µM	–	–	–	–	–	–	–	–	–	–	–
O=c1ccc2nc(-c3ccccc3)nn(-c3ccccc3)c-2c1	33.4 µM	1.44 µM	–	3.45 µM	1.12 µM	1.97 µM	7.54 µM	5.32 µM	2.7 µM	18.1 µM	0.47 µM	–	1.8 µM	0.353 µM	0.546 µM	2.6 µM	2.02 µM	1.39 µM	1.88	3.84
COc1ccc(NC(=O)CC/C(CC(=O)c2ccco2)=N/Nc2ccc([N+](=O)[O-])cc2[N+](=O)[O-])cc1	> 100 µM	> 100 µM	> 100 µM	> 100 µM	> 100 µM	97.3 µM	> 100 µM	82.3 µM	> 100 µM	–	–	–	–	–	–	–	–	–	–	–
CCOC(=O)c1cnc2ccc(Cl)cc2c1NCCCN(C)C	37.8 µM	> 100 µM	–	52.6 µM	> 100 µM	63.5 µM	> 100 µM	54.9 µM	> 100 µM	15.6 µM	9.85 µM	–	14.1 µM	18.1 µM	16.3 µM	22.2 µM	20.7 µM	27.5 µM	19.5	86.4

Reference: PubChem BioAssay (NCI)
